In ChEMBL document CHEMBL1201862, “PubChem BioAssay data set” (2004):
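Protocol summary: plate cells (96-well), add compound at 5 concentrations, incubate 48 h, interpolate endpoints linearly. GI50 marks 50% less growth.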 Calls of active or inactive are those of the source. No stated cut-off is given here; in the data, active = GI50 up to about 1.1 µM and inactive = higher.

How the values were obtained:
Test in all cases: NCI tumour cell line growth inhibition, 48 h
OVCAR-8 = test system: OVCAR-8
OVCAR-4 = test system: OVCAR-4
K562 = test system: K562
HCC 2998 = test system: HCC 2998
COLO 205 = test system: COLO 205
RPMI-8226 = test system: RPMI-8226
ACHN = test system: ACHN
T47D = test system: T47D
OVCAR-5 = test system: OVCAR-5
CCRF-CEM = test system: CCRF-CEM
SF-539 = test system: SF-539
SNB-19 = test system: SNB-19
RXF 393 = test system: RXF 393
HT-29 = test system: HT-29
LOX IMVI = test system: LOX IMVI
SR = test system: SR
SK-OV-3 = test system: SK-OV-3
MDA-N = test system: MDA-N
SK-MEL-28 = test system: SK-MEL-28
IGROV-1 = test system: IGROV-1

Structure (SMILES)	GI50 (OVCAR-8)	GI50 (OVCAR-4)	GI50 (K562)	GI50 (HCC 2998)	GI50 (COLO 205)	GI50 (RPMI-8226)	GI50 (ACHN)	GI50 (T47D)	GI50 (OVCAR-5)	GI50 (CCRF-CEM)	GI50 (SF-539)	GI50 (SNB-19)	GI50 (RXF 393)	GI50 (HT-29)	GI50 (LOX IMVI)	GI50 (SR)	GI50 (SK-OV-3)	GI50 (MDA-N)	GI50 (SK-MEL-28)	GI50 (IGROV-1)
O=C(O)CCCc1ccc2ccccc2c1	> 100 µM (inactive)	> 100 µM (inactive)	> 100 µM (inactive)	> 100 µM (inactive)	> 100 µM (inactive)	42.9 µM (inactive)	> 100 µM (inactive)	> 100 µM (inactive)	> 100 µM (inactive)	> 100 µM (inactive)	> 100 µM (inactive)	> 100 µM (inactive)	> 100 µM (inactive)	> 100 µM (inactive)	> 100 µM (inactive)	97.9 µM (inactive)	> 100 µM (inactive)	> 100 µM (inactive)	> 100 µM (inactive)	> 100 µM (inactive)
COc1cccc2c1/c(=C/c1ccc(N(C)C)cc1)c1cc(-c3ccccc3)[n+](C)n12	0.0446 µM (active)	0.344 µM (active)	0.0493 µM (active)	0.0348 µM (active)	0.0272 µM (active)	0.0202 µM (active)	0.216 µM (active)	0.0964 µM (active)	0.509 µM (active)	0.0571 µM (active)	0.169 µM (active)	0.0933 µM (active)	0.528 µM (active)	0.0736 µM (active)	0.153 µM (active)	0.0385 µM (active)	0.223 µM (active)	0.0826 µM (active)	0.239 µM (active)	0.083 µM (active)
CCCCCCCCCC1(N=[N+]=[N-])C(=O)c2ccccc2N(C)C1=O (centres undefined)	–	67.1 µM (inactive)	19.8 µM (inactive)	33 µM (inactive)	32 µM (inactive)	39.9 µM (inactive)	32.3 µM (inactive)	3.4 µM (inactive)	31.9 µM (inactive)	16.8 µM (inactive)	70 µM (inactive)	54.7 µM (inactive)	22.6 µM (inactive)	30.4 µM (inactive)	15.3 µM (inactive)	35.4 µM (inactive)	25.1 µM (inactive)	30.7 µM (inactive)	28.8 µM (inactive)	27.2 µM (inactive)
COC1=C(OC)C(=O)C(Cc2c(C)nc3sc(C)cn23)=C(C)C1=O	17.1 µM (inactive)	10.9 µM (inactive)	16.9 µM (inactive)	29 µM (inactive)	19.3 µM (inactive)	16.3 µM (inactive)	15.1 µM (inactive)	34.1 µM (inactive)	22.2 µM (inactive)	7.13 µM (inactive)	17.4 µM (inactive)	19 µM (inactive)	20.9 µM (inactive)	20.2 µM (inactive)	17.4 µM (inactive)	17.9 µM (inactive)	22 µM (inactive)	18 µM (inactive)	16.1 µM (inactive)	17.4 µM (inactive)
CCOC(=O)c1c(Sc2ccc([N+](=O)[O-])cc2[N+](=O)[O-])nc2c3ccccc3ccn12	33.8 µM (inactive)	10.7 µM (inactive)	> 100 µM (inactive)	> 28.6 µM (inactive)	> 100 µM (inactive)	36.3 µM (inactive)	19.3 µM (inactive)	> 100 µM (inactive)	> 100 µM (inactive)	40.7 µM (inactive)	15 µM (inactive)	> 68.1 µM (inactive)	21 µM (inactive)	> 100 µM (inactive)	> 100 µM (inactive)	> 100 µM (inactive)	15.9 µM (inactive)	> 100 µM (inactive)	> 100 µM (inactive)	> 31.6 µM (inactive)
O=C1OC(c2ccc(Cl)cc2)=N/C1=C\c1ccccc1	> 100 µM (inactive)	> 100 µM (inactive)	> 100 µM (inactive)	> 100 µM (inactive)	> 100 µM (inactive)	46.6 µM (inactive)	> 100 µM (inactive)	> 100 µM (inactive)	> 100 µM (inactive)	39.5 µM (inactive)	> 100 µM (inactive)	> 100 µM (inactive)	> 100 µM (inactive)	> 100 µM (inactive)	> 100 µM (inactive)	> 100 µM (inactive)	> 100 µM (inactive)	> 100 µM (inactive)	> 100 µM (inactive)	> 100 µM (inactive)
O=c1[nH]c2c(Nc3c4ccccc4nc4ccccc34)c([N+](=O)[O-])c(Nc3c4ccccc4nc4ccccc34)c([N+](=O)[O-])c2[nH]1	1.21 µM (inactive)	2.35 µM (inactive)	2.59 µM (inactive)	1.73 µM (inactive)	1.37 µM (inactive)	0.514 µM (active)	0.6 µM (active)	3.29 µM (inactive)	1.8 µM (inactive)	0.855 µM (active)	2.61 µM (inactive)	2.64 µM (inactive)	2.42 µM (inactive)	0.618 µM (active)	1.52 µM (inactive)	0.741 µM (active)	3.03 µM (inactive)	2.36 µM (inactive)	3.13 µM (inactive)	1.69 µM (inactive)
